Results taken from patent US20250382330A1, “IMMUNOLOGICALLY ACTIVE POLYPEPTIDE” (CDRES PHARMA LLC, priority 2022, published 2025).
Entries after “also recorded” stand apart in the source; their conditions may differ. Like-named read-outs stand apart in the source and are kept apart here. Ends that are not written are not given here.

How the values were obtained:
[1] = Tolerability / adverse effects of intravenous dosing in the Lewis rat RA model; assay type: in vivo; conditions: for adverse effects: 500 μg/ml, intravenous
Method: On day 15, the rats were divided into treatment groups and were dosed intravenously on a daily basis for the next 15 days (except as noted) with the pentide YLQMN (SEQ ID NO: 5)-containing PeptideX2 (SEQ ID NO: 1) to achieve final circulating concentrations of PeptideX2 peptide as follows: 0 μg/ml (vehicle control: 0.2% acetic acid-Dulbecco's phosphate buffered saline (PBS-D), pH 6.0); 100 μg/ml vehicle; 200 μg/ml vehicle, and 500 μg/ml vehicle per rat/per day. As a positive control for anti-inflammatory activity, daily dosing of a control rat with prednisolone at 10 mg/kg/day was used. The arthritis index was calculated daily for each viable rat throughout the 30-day study.
B. Stability, aggregation, and toxicity of the pentide YLQMN (SEQ ID NO: 5)-containing polypeptides PeptideX2 (SEQ ID NO: 1) and G2-PeptideX2 (SEQ ID NO: 2).
Eleven Lewis rats were prepared using the collagen induced arthritis protocol. At day 15 thru day 30, three rats were given daily dosing of PeptideX2-13 (SEQ ID NO: 3) at 100 μg/ml, three rats were given daily dosing of PeptideX2-13 (SEQ ID NO: 3) at 250 μg/ml, and three rats were given daily dosing of PeptideX2-13 (SEQ ID NO: 3) at 500 μg/ml; as a positive control group, two rats were given prednisolone at 10 mg/kg/day.
The rats were weighed, scored for signs of arthritis and assigned to various treatment groups of one or more rats to each group. For the prednisolone control group, 200.85 mg prednisolone 21-hemisuccinate sodium salt (Sigma, Cat. P4153) was dissolved in 15 ml de-ionized water to prepare a 10 mg/ml solution which was stored at 4-8° C. when not in use. Rats in the study groups were dosed daily from day 15 through day 30 according to the formula for which a rat weighing (g)×64 ml/1000 g (represents the total blood volume) multiplied by the test product dose/test product concentration to determine the total volume to be injected into the animal per day to achieve that desired estimated blood concentration. Rats were weighed and scored daily during the treatment phase of the experiment and the results recorded and reported.

[2] = Solubility of peptideX2-13 modifications in aqueous buffer; assay type: physicochemical; conditions: for solubility, comparative: modification (10) vs peptideX2-13, modification (11) vs (10), reversed core sequence
Method: Various modifications of peptideX2-13 were tested for solubility (see Table 2).

[3] = first renal transplantations, cited from earlier work
[4] = system: collagen-induced arthritis in Lewis rats; assay: Collagen-induced arthritis in Lewis rats, daily arthritis index; assay type: in vivo, Lewis rat; conditions: positive control, 10 mg/kg/day
Method: A. Collagen-Induced Lewis Rat Model of Rheumatoid Arthritis (RA)-PeptideX2 (SEQ ID NO: 1). The Lewis rat system is an art-accepted in vivo animal model of collagen-induced rheumatoid arthritis. Lewis rats obtained from a commercial laboratory supply vendor were maintained during a quarantine period under standard animal care conditions and found to be free of any clinical signs of disease or distress. Bovine type II collagen (10 mg, Chondrex, Inc., Redmond, WA) was dissolved in 2.5 ml 0.1M acetic acid and stirred overnight at 4-8° C. in the dark, and then one ml of this collagen solution was emulsified in one ml of incomplete Freund's adjuvant (ICFA, Sigma, St. Louis, MO) on an ice bath. On day zero, each of five rats was injected with 0.2 ml of collagen/ICFA emulsion at two sites and then observed for the next 30 days with the arthritis index (AI) calculated daily using the 16-point scoring method of Bevaart et al. (2010 Meths. Mol. Biol. 602:181: 0 points, no joint swelling or edema; 1 point, slight edema and erythema limited to foot and/or ankle; 2 points, edema and erythema in the toes and most ankle joints; 3 points, severe edema and erythema in the paw below the ankle joint; 4 points, edema and erythema of all four paws including the ankle joint). […]
6 Lewis rats (ENVIGO, female, 190-210g) were received, individually examined, and housed. […] Rat weights were recorded daily. […]

human TLR2 [5] = target: T1, human TLR2 (human, UniProt O60603 21-784); assay: NF-κB SEAP reporter in HEK293 cells expressing human TLR2, 200 µg/ml (FIG. 6); binding inferred from reporter activity
T1 construct: whole, on cells; Expressed in HEK293 NF-κB/SEAP reporter cells; also called hTLR2; toll-like receptor 2
Method: Human Toll-like receptor ligand screening was performed using test samples containing a peptide of interest at 200 μg/ml. The general procedure consisted of testing for NF-κB activation in HEK293 cells expressing a given TLR. The samples were tested against seven different human TLRs (TLR2, 3, 4, 5, 7, 8, 9). The media added to the wells were designed for the detection of NF-κB induced SEAP (secreted embryonic alkaline phosphatase) expression. After 16-24 hours of incubation, the optical density (OD) was read at 650 nm on a Molecular Devices SpectraMax 340PC absorbance detector.

human TLR2 [6] = target: T1, human TLR2; assay: NF-κB SEAP reporter on human TLR panel; binding inferred from reporter activity
[7] = buffer (0.2% acetic acid, 0.375M Hepes, 0.375% glycerol, pH 7), no concentration stated

T1 sequence (O60603 21-784): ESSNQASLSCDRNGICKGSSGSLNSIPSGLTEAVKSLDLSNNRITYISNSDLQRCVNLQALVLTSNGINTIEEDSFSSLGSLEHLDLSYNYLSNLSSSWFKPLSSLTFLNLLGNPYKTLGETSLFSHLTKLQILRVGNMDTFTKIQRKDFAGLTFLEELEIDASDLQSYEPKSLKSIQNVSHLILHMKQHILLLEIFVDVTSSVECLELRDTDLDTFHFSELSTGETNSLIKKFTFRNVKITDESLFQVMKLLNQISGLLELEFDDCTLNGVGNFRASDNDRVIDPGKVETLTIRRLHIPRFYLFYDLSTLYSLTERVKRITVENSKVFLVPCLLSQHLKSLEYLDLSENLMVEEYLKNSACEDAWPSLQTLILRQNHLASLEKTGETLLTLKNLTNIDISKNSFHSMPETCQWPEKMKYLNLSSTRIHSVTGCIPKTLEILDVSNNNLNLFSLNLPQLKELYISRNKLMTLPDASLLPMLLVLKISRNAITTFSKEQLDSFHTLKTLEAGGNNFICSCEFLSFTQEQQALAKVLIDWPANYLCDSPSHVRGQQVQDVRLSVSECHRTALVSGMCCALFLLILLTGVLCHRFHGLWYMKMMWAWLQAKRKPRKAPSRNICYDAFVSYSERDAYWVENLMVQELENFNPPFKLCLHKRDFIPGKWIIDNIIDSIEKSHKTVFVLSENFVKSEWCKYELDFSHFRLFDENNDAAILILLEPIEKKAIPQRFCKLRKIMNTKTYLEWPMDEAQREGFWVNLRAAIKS

Q: With YLQMN [pentide, YLQMN] as the molecule, how does the adverse effects [1] read?
A: Its adverse effects is “No adverse effects”.

Q: Which Solubility [2, 7] does the source give for GYLQMNG [modification (7), GYLQMNG] here?
A: Its Solubility is “insoluble in aqueous buffer”.

Q: Which Solubility ([2]; at 5 mg/ml concentration) does the source give for GRSSANMQLYASSRG [modification (11)] here?
A: Its Solubility is “Insoluble at”.

Q: And the “solubility, comparative” value [2]?
A: The value was “no significant difference”.

Q: What does the source list for `C=CC[C@@H]1/C=C(\C)C[C@H](C)C[C@H](OC)[C@H]2O[C@@](O)(C(=O)C(=O)N3CCCC[C@H]3C(=O)O[C@H](/C(C)=C/[C@@H]3CC[C@@H](O)[C@H](OC)C3)[C@H](C)[C@@H](O)CC1=O)[C@H](C)C[C@@H]2OC` [TAC, tacrolimus]?
A: graft survival rate ([3]; 5 years post-transplant): 77%; graft survival rate ([3]; 10 years post-transplant): 60%

Q: For `Cn1cnc([N+](=O)[O-])c1Sc1ncnc2nc[nH]c12` [AZA, azathioprine], which graft survival rate ([3]; 5 years post-transplant) is on record?
A: Its graft survival rate is 56%.

Q: What about the graft survival rate ([3]; 10 years post-transplant) of the same molecule?
A: Its graft survival rate is 46%.

Q: With GKAANMQLYAAKG [SEQ ID NO: 17] as the molecule, how does the Solubility ([2]; buffer, at 2 mg/ml) read?
A: The Solubility was “Soluble in buffer”.

Q: Which Solubility ([2]; buffer, at 2 mg/ml) does the source give for PKAAYLQMNAAKP [SEQ ID NO: 12] here?
A: Its Solubility is “Soluble in buffer”.

Q: Which Solubility ([2]; at 5 mg/ml concentration) does the source give for GRSSAYLQMNASSRG [modification (10)] here?
A: Its Solubility is “Insoluble at”.

Q: And the “solubility, comparative” value [2]?
A: Its value is “less solubility compared to peptideX2-13”.

Q: With “GRAAYLQMNAARG [K2R/K12R-substituted PeptideX2-13]” as the molecule, how does the Solubility ([2]; buffer, at 2 mg/ml) read?
A: The Solubility was “Soluble in buffer”.

Q: What does the source list for GKAAYLQMNAAKG [PeptideX2-13]?
A: Solubility [2, 7]: Soluble in buffer; tolerability in animal model compared with PeptideX2 ([1]; summary statement): tolerated and not toxic at a certain higher concentrations than was the case for previously described PeptideX2

Q: With “KSIAYLQMNSLK [PeptideX2, reference compound]” as the molecule, how does the adverse effects [1] read?
A: The adverse effects was “went into respiratory distress and died immediately”.

Q: And the “outcome (death)” value ([1]; single IV dose to achieve 300 μg/ml, thirty-eight minutes after injection)?
A: The value was “went into convulsions again and died”.

Q: With GKAYLQMNAKG [SEQ ID NO: 13] as the molecule, how does the Solubility ([2]; buffer, at 2 mg/ml) read?
A: Its Solubility is “Soluble in buffer”.

Q: Which Solubility ([2]; buffer, at 2 mg/ml) does the source give for GKYLQMNKG [SEQ ID NO: 22] here?
A: Its Solubility is “Soluble in buffer”.

Q: For `C[C@]12C=CC(=O)C=C1CC[C@@H]1[C@@H]2[C@@H](O)C[C@@]2(C)[C@H]1CC[C@]2(O)C(=O)CO` [prednisolone], which arthritis index [4] is on record?
A: Its arthritis index is “potent and sustained reduction of the arthritis index; also recorded: decreased”.

B1: reverse modified peptideX2 (NMQLY) (peptide)
peptide: NMQLY
notes: Printed as NMQLY; also called reverse core; reverse-peptideX2
Q: Does B1 bind (human TLR2 [5])?
A: Result: binds

B2: PeptideX2 (KSIAYLQMNSLK) (peptide)
peptide: KSIAYLQMNSLK
Q: Does B2 bind (human TLR2 [6])?
A: Result: binds
